Data published in patent publication US8101576B2, “Compounds and their effects on feeding behaviour” (priority 2006, dated 2012).
Square brackets hold non-standard residues; d marks the D form. Ends that are not written are not given here. * marks the point of attachment. Arachidoyl = CCCCCCCCCCCCCCCCCCCC(=O)*; Palmitoyl = CCCCCCCCCCCCCCCC(=O)*; Myristoyl = CCCCCCCCCCCCCC(=O)*

Test: Inhibition of food intake, subcutaneous injection to fasted rats
Assay type: in vivo, Wistar rats
Description: Animals: All animal procedures were approved by the British Home Office Animals (Scientific Procedures) Act 1986 (Project License number 70/5516).
Study protocol: C57BL/6 mice (20-35 g) were injected with the peptide under investigation following a 20-hour fast. Wistar rats were injected following a 24-hour fast. […] A pre-weighed quantity of chow was presented immediately after injection.

## D-His Ala Asp Gly Thr Phe Thr Ser Asp Tyr Ser Lys Tyr Leu Glu Gln Glu Ile Val Lys Tyr Phe Ile Gln Trp Leu Lys Asn Gly Gly Pro Ser Lys Asn Asn Ile Ala Lys ([dH]ADGTFTSDYSKYLEQEIVKYFIQWLKNGGPSKNNIAK) [PEPTIDE NO: 202]
5 nmoles/kg, over 48 hours
  Mean cumulative food intake in comparison to saline control: potent and long acting suppression of food intake
  food intake in comparison to control group treated with native oxyntomodulin: lower than in the control group treated with native oxyntomodulin

## D-His Ala Asp Gly Thr Phe Thr Ser Asp Tyr Ser Lys Tyr Leu Glu Gln Glu Ile Val Lys Tyr Phe Leu Gln Trp Leu Lys Asn Ala Gly Pro Ser Lys Asn Asn Ile Ala ([dH]ADGTFTSDYSKYLEQEIVKYFLQWLKNAGPSKNNIA) [PEPTIDE NO: 184]
3 nmoles/kg, over 24 hours
  Mean cumulative food intake in comparison to saline control: potent and long acting suppression of food intake
  food intake in comparison to control group treated with native oxyntomodulin: lower than in the control group treated with native oxyntomodulin

## D-His Ala Asp Gly Thr Phe Thr Ser Asp Tyr Ser Lys Tyr Leu Glu Gln Glu Leu Val Lys Tyr Phe Ile Gln Trp Leu Lys Asn Ala Gly Pro Ser Lys Asn Asn Ile Ala ([dH]ADGTFTSDYSKYLEQELVKYFIQWLKNAGPSKNNIA) [PEPTIDE NO: 178]
10 nmoles/kg, over 24 hours
  Mean cumulative food intake in comparison to saline control: potent and long acting suppression of food intake
  food intake in comparison to control group treated with native oxyntomodulin: lower than in the control group treated with native oxyntomodulin

## D-His Ala Asp Gly Thr Phe Thr Ser Asp Tyr Ser Lys Tyr Leu Glu Gln Glu Leu Val Lys Tyr Phe Ile Gln Trp Leu Lys Asn Gly Gly Pro Ser Lys Asn Asn Ile Ala Lys ([dH]ADGTFTSDYSKYLEQELVKYFIQWLKNGGPSKNNIAK) [PEPTIDE NO: 205]
5 nmoles/kg, over 32 hours
  Mean cumulative food intake in comparison to saline control: potent and long acting suppression of food intake
  food intake in comparison to control group treated with native oxyntomodulin: lower than in the control group treated with native oxyntomodulin

## D-His Ala Asp Gly Thr Phe Thr Ser Asp Tyr Ser Lys Tyr Leu Glu Gln Glu Leu Val Lys Tyr Phe Leu Gln Trp Leu Lys Asn Ala Gly Pro Ser Lys Asn Asn Ile Ala ([dH]ADGTFTSDYSKYLEQELVKYFLQWLKNAGPSKNNIA) [PEPTIDE NO: 172]
3 nmoles/kg, over 24 hours
  Mean cumulative food intake in comparison to saline control: potent and long acting suppression of food intake
  food intake in comparison to control group treated with native oxyntomodulin: lower than in the control group treated with native oxyntomodulin

## D-His Ala Asp Gly Thr Phe Thr Ser Asp Tyr Ser Lys Tyr Leu Glu Glu Glu Ile Val Lys Tyr Phe Ile Gln Trp Leu Lys Asn Gly Gly Pro Ser Lys Asn Asn Ile Ala ([dH]ADGTFTSDYSKYLEEEIVKYFIQWLKNGGPSKNNIA) [PEPTIDE NO: 167]
5 nmoles/kg, 32 hours observed
  food intake suppression continues for: ≥ 32 h
5 nmoles/kg, over 32 hours
  Mean cumulative food intake in comparison to saline control: potent and long acting suppression of food intake
  food intake in comparison to control group treated with native oxyntomodulin: lower than in the control group treated with native oxyntomodulin

## D-His Ala Asp Gly Thr Phe Thr Ser Asp Tyr Ser Lys Tyr Leu Glu Glu Glu Ile Val Lys Tyr Phe Ile Gln Trp Leu Lys Asn Gly Gly Pro Ser Lys Asn Asn Ile Ala Lys ([dH]ADGTFTSDYSKYLEEEIVKYFIQWLKNGGPSKNNIAK) [PEPTIDE NO: 201]
5 nmoles/kg, over 48 hours
  Mean cumulative food intake in comparison to saline control: potent and long acting suppression of food intake
  food intake in comparison to control group treated with native oxyntomodulin: lower than in the control group treated with native oxyntomodulin

## D-His Ala Asp Gly Thr Phe Thr Ser Asp Tyr Ser Lys Tyr Leu Glu Glu Glu Ile Val Lys Tyr Phe Ile Gln Trp Leu Met Asn Thr Lys Arg Asn Lys Asn Asn Ile Ala Lys ([dH]ADGTFTSDYSKYLEEEIVKYFIQWLMNTKRNKNNIAK) [PEPTIDE NO: 203]
100 nmoles/kg, 24 hours observed
  food intake suppression continues for: ≥ 24 h
100 nmoles/kg, over 24 hours
  Mean cumulative food intake in comparison to saline control: potent and long acting suppression of food intake
  food intake in comparison to control group treated with native oxyntomodulin: lower than in the control group treated with native oxyntomodulin

## D-His Ala Asp Gly Thr Phe Thr Ser Asp Tyr Ser Lys Tyr Leu Glu Glu Glu Ile Val Lys Tyr Phe Ile Glu Trp Leu Lys Asn Gly Gly Pro Ser Lys Asn Asn Ile Ala ([dH]ADGTFTSDYSKYLEEEIVKYFIEWLKNGGPSKNNIA) [PEPTIDE NO: 164]
4 nmoles/kg, 48 hours observed
  food intake suppression continues for: ≥ 48 h
4 nmoles/kg, over 48 hours
  Mean cumulative food intake in comparison to saline control: potent and long acting suppression of food intake
  food intake in comparison to control group treated with native oxyntomodulin: lower than in the control group treated with native oxyntomodulin

## D-His Ala Asp Gly Thr Phe Thr Ser Asp Tyr Ser Lys Tyr Leu Glu Glu Glu Leu Val Lys Tyr Phe Ile Gln Trp Leu Lys Asn Gly Gly Pro Ser Lys Asn Asn Ile Ala ([dH]ADGTFTSDYSKYLEEELVKYFIQWLKNGGPSKNNIA) [PEPTIDE NO: 155]
4 nmoles/kg, 32 hours observed
  food intake suppression continues for: ≥ 32 h
4 nmoles/kg, over 32 hours
  Mean cumulative food intake in comparison to saline control: potent and long acting suppression of food intake
  food intake in comparison to control group treated with native oxyntomodulin: lower than in the control group treated with native oxyntomodulin

## D-His Ala Asp Gly Thr Phe Thr Ser Asp Tyr Ser Lys Tyr Leu Glu Glu Glu Leu Val Lys Tyr Phe Ile Gln Trp Leu Lys Asn Gly Gly Pro Ser Lys Asn Asn Ile Ala Ala Ala Lys-arachidoyl ([dH]ADGTFTSDYSKYLEEELVKYFIQWLKNGGPSKNNIAAAK(Arachidoyl)) [PEPTIDE NO: 209]
80 mmoles/kg, over 48 hours
  food intake in comparison to control group treated with native oxyntomodulin: lower than in the control group treated with native oxyntomodulin
Over 48 hours
  Mean cumulative food intake in comparison to saline control: potent and long acting suppression of food intake

## D-His Ala Asp Gly Thr Phe Thr Ser Asp Tyr Ser Lys Tyr Leu Glu Glu Glu Leu Val Lys Tyr Phe Ile Gln Trp Leu Lys Asn Gly Gly Pro Ser Lys Asn Asn Ile Ala Ala Ala Lys-myristoyl ([dH]ADGTFTSDYSKYLEEELVKYFIQWLKNGGPSKNNIAAAK(Myristoyl)) [PEPTIDE NO: 206]
80 mmoles/kg, over 48 hours
  food intake in comparison to control group treated with native oxyntomodulin: lower than in the control group treated with native oxyntomodulin
Over 48 hours
  Mean cumulative food intake in comparison to saline control: potent and long acting suppression of food intake

## D-His Ala Asp Gly Thr Phe Thr Ser Asp Tyr Ser Lys Tyr Leu Glu Glu Glu Leu Val Lys Tyr Phe Ile Gln Trp Leu Lys Asn Gly Gly Pro Ser Lys Asn Asn Ile Ala Ala Ala Lys-palmitoyl ([dH]ADGTFTSDYSKYLEEELVKYFIQWLKNGGPSKNNIAAAK(Palmitoyl)) [PEPTIDE NO: 207]
80 mmoles/kg, over 48 hours
  food intake in comparison to control group treated with native oxyntomodulin: lower than in the control group treated with native oxyntomodulin
Over 48 hours
  Mean cumulative food intake in comparison to saline control: potent and long acting suppression of food intake

## D-His Ala Asp Gly Thr Phe Thr Ser Asp Tyr Ser Lys Tyr Leu Glu Glu Glu Leu Val Lys Tyr Phe Ile Gln Trp Leu Lys Asn Gly Gly Pro Ser Lys Asn Asn Ile Ala Lys ([dH]ADGTFTSDYSKYLEEELVKYFIQWLKNGGPSKNNIAK) [PEPTIDE NO: 204]
5 nmoles/kg, over 32 hours
  Mean cumulative food intake in comparison to saline control: potent and long acting suppression of food intake
  food intake in comparison to control group treated with native oxyntomodulin: lower than in the control group treated with native oxyntomodulin

## D-His Ala Asp Gly Thr Phe Thr Ser Asp Tyr Ser Lys Tyr Leu Glu Glu Glu Leu Val Lys Tyr Phe Ile Glu Trp Leu Met Asn Thr Lys Arg Asn Lys Asn Asn Ile Ala ([dH]ADGTFTSDYSKYLEEELVKYFIEWLMNTKRNKNNIA) [PEPTIDE NO: 153]
200 mmoles/kg, over 24 hours
  Mean cumulative food intake in comparison to saline control: potent and long acting suppression of food intake
  food intake in comparison to control group treated with native oxyntomodulin: lower than in the control group treated with native oxyntomodulin

## D-His Ala Asp Gly Thr Phe Thr Ser Asp Tyr Ser Lys Tyr Leu Glu Glu Glu Leu Val Lys Tyr Phe Leu Gln Trp Leu Lys Asn Ala Gly Pro Ser Lys Asn Asn Ile Ala ([dH]ADGTFTSDYSKYLEEELVKYFLQWLKNAGPSKNNIA) [PEPTIDE NO: 148]
10 nmoles/kg, over 24 hours
  Mean cumulative food intake in comparison to saline control: potent and long acting suppression of food intake
  food intake in comparison to control group treated with native oxyntomodulin: lower than in the control group treated with native oxyntomodulin

## D-His Ala Gln Gly Thr Phe Thr Ser Asp Tyr Ser Lys Tyr Leu Glu Gln Glu Ile Val Lys Tyr Phe Ile Gln Trp Leu Lys Asn Ala Gly Pro Ser Lys Asn Asn Ile Ala ([dH]AQGTFTSDYSKYLEQEIVKYFIQWLKNAGPSKNNIA) [PEPTIDE NO: 142]
3 nmoles/kg, over 24 hours
  Mean cumulative food intake in comparison to saline control: potent and long acting suppression of food intake
  food intake in comparison to control group treated with native oxyntomodulin: lower than in the control group treated with native oxyntomodulin

## D-His Ala Gln Gly Thr Phe Thr Ser Asp Tyr Ser Lys Tyr Leu Glu Glu Glu Leu Val Lys Tyr Phe Leu Gln Trp Leu Lys Asn Ala Gly Pro Ser Lys Asn Asn Ile Ala ([dH]AQGTFTSDYSKYLEEELVKYFLQWLKNAGPSKNNIA) [PEPTIDE NO: 100]
20 nmoles/kg, over 24 hours
  Mean cumulative food intake in comparison to saline control: potent and long acting suppression of food intake
  food intake in comparison to control group treated with native oxyntomodulin: lower than in the control group treated with native oxyntomodulin
